Laboratory results: ChEMBL document CHEMBL4261496, “Targeting quinolone- and aminocoumarin-resistant bacteria with new gyramide analogs that inhibit DNA gyrase” (Medchemcomm, 2017)
Converted amounts (≈) assume the structure as drawn. The source made the active and inactive calls. No cut-off for these calls is given here.

How the values were obtained:
[1] = Ratio of MIC for Escherichia coli BW25113 to MIC for Escherichia coli JW5503; assay type: functional
Pseudomonas aeruginosa = test: Antibacterial activity against Pseudomonas aeruginosa after 16 to 18 hrs by broth microdilution method; assay type: functional
Escherichia coli [2] = test: Antibacterial activity against gyramide-resistant Escherichia coli JW5503 harboring GyrA His45Tyr mutant after 16 to 18 hrs by broth microdilution method; assay type: functional
Bacillus cereus = test: Antibacterial activity against Bacillus cereus after 16 to 18 hrs by broth microdilution method; assay type: functional
Enterococcus faecium = test: Antibacterial activity against Enterococcus faecium after 16 to 18 hrs by broth microdilution method; assay type: functional
Enterococcus faecalis = test: Antibacterial activity against Enterococcus faecalis after 16 to 18 hrs by broth microdilution method; assay type: functional
Bacillus subtilis = test: Antibacterial activity against Bacillus subtilis after 16 to 18 hrs by broth microdilution method; assay type: functional
Escherichia coli [3] = test: Antibacterial activity against Escherichia coli UPEC after 16 to 18 hrs by broth microdilution method; assay type: functional
Escherichia coli [4] = test: Antibacterial activity against Escherichia coli BAS849 after 16 to 18 hrs by broth microdilution method; assay type: functional
Escherichia coli [5] = test: Ratio of MIC for gyramide-resistant Escherichia coli JW5503 harboring GyrA Pro35Thr mutant to MIC for Escherichia coli JW5503; assay type: functional
Escherichia coli [6] = test: Antibacterial activity against Escherichia coli JW5503 after 16 to 18 hrs by broth microdilution method; assay type: functional
Escherichia coli [7] = test: Ratio of MIC for novobiocin-resistant Escherichia coli CC5 harboring GyrB Arg136His mutant to MIC for Escherichia coli HB101; assay type: functional
Escherichia coli [8] = test: Antibacterial activity against novobiocin-resistant Escherichia coli LE316 harboring GyrB Arg136Val mutant after 16 to 18 hrs in presence of PAbetaN by broth microdilution method; assay type: functional
Escherichia coli [9] = test: Antibacterial activity against ciprofloxacin-resistant Escherichia coli JW5503 harboring GyrA Asp87Tyr mutant after 16 to 18 hrs by broth microdilution method; assay type: functional
Streptococcus agalactiae = test: Antibacterial activity against Streptococcus agalactiae after 16 to 18 hrs by broth microdilution method; assay type: functional
Escherichia coli [10] = test: Ratio of MIC for ciprofloxacin-resistant Escherichia coli JW5503 harboring GyrB Ser464Phe mutant to MIC for Escherichia coli JW5503; assay type: functional
DNA gyrase = DNA gyrase (Escherichia coli, UniProt P0AES4+P0AES6); test: Inhibition of Escherichia coli DNA gyrase assessed as inhibition of pUC19 supercoiling after 30 mins by agarose gel electrophoresis; assay type: protein-complex assay
Shigella flexneri = test: Antibacterial activity against Shigella flexneri after 16 to 18 hrs by broth microdilution method; assay type: functional
Escherichia coli [11] = test: Ratio of MIC for gyramide-resistant Escherichia coli JW5503 harboring GyrA Ser97Pro mutant to MIC for Escherichia coli JW5503; assay type: functional
Escherichia coli [12] = test: Antibacterial activity against Escherichia coli BW25113 after 16 to 18 hrs by broth microdilution method; assay type: functional
Escherichia coli [13] = test: Antibacterial activity against Escherichia coli MC4100 after 16 to 18 hrs by broth microdilution method; assay type: functional
Escherichia coli [14] = test: Antibacterial activity against gyramide-resistant Escherichia coli JW5503 harboring GyrA Ser97Pro mutant after 16 to 18 hrs by broth microdilution method; assay type: functional
Acinetobacter baumannii = test: Antibacterial activity against Acinetobacter baumannii clinical isolate after 16 to 18 hrs by broth microdilution method; assay type: functional
Streptococcus pyogenes = test: Antibacterial activity against Streptococcus pyogenes after 16 to 18 hrs by broth microdilution method; assay type: functional
Escherichia coli [15] = test: Antibacterial activity against gyramide-resistant Escherichia coli JW5503 harboring GyrA Pro35Thr mutant after 16 to 18 hrs by broth microdilution method; assay type: functional
Klebsiella pneumoniae = test: Antibacterial activity against Klebsiella pneumoniae after 16 to 18 hrs by broth microdilution method; assay type: functional
Salmonella typhimurium = test: Antibacterial activity against Salmonella enterica subsp. enterica serovar Typhimurium after 16 to 18 hrs by broth microdilution method; assay type: functional
Escherichia coli [16] = test: Ratio of MIC for ciprofloxacin-resistant Escherichia coli JW5503 harboring GyrA Ser83Leu mutant to MIC for Escherichia coli JW5503; assay type: functional
Morganella morganii = test: Antibacterial activity against Morganella morganii clinical isolate after 16 to 18 hrs by broth microdilution method; assay type: functional
Escherichia coli [17] = test: Antibacterial activity against ciprofloxacin-resistant Escherichia coli JW5503 harboring GyrA Asp87Gly mutant after 16 to 18 hrs by broth microdilution method; assay type: functional
Escherichia coli [18] = test: Ratio of MIC for gyramide-resistant Escherichia coli JW5503 harboring GyrB Ser464Phe mutant to MIC for Escherichia coli JW5503; assay type: functional
Escherichia coli [19] = test: Antibacterial activity against gyramide-resistant Escherichia coli JW5503 harboring GyrA Phe96Leu mutant after 16 to 18 hrs by broth microdilution method; assay type: functional
[20] = target: DNA gyrase (Escherichia coli) (UniProt P0AES6+P0AES4); test: Inhibition of Escherichia coli DNA gyrase ATPase activity up to 100 uM using DNA as substrate after 60 mins; assay type: protein-complex assay
Edwardsiella tarda = test: Antibacterial activity against Edwardsiella tarda clinical isolate after 16 to 18 hrs by broth microdilution method; assay type: functional
Escherichia coli [21] = test: Ratio of MIC for ciprofloxacin-resistant Escherichia coli JW5503 harboring GyrA Asp87Gly mutant to MIC for Escherichia coli JW5503; assay type: functional
Escherichia coli [22] = test: Ratio of MIC for gyramide-resistant Escherichia coli JW5503 harboring GyrA Phe96Leu mutant to MIC for Escherichia coli JW5503; assay type: functional
Escherichia coli [23] = test: Ratio of MIC for novobiocin-resistant Escherichia coli LE316 harboring GyrB Arg136Val mutant to MIC for Escherichia coli HB101; assay type: functional
Escherichia coli [24] = test: Ratio of MIC for ciprofloxacin-resistant Escherichia coli JW5503 harboring GyrA Asp87Tyr mutant to MIC for Escherichia coli JW5503; assay type: functional
Escherichia coli [25] = test: Antibacterial activity against ciprofloxacin-resistant Escherichia coli JW5503 harboring GyrB Ser464Phe mutant after 16 to 18 hrs by broth microdilution method; assay type: functional
[26] = tested on: Staphylococcus saprophyticus; test: Antibacterial activity against Staphylococcus saprophyticus clinical isolate after 16 to 18 hrs by broth microdilution method; assay type: functional
Escherichia coli [27] = test: Ratio of MIC for novobiocin-resistant Escherichia coli CC7 harboring GyrB Arg136Ser mutant to MIC for Escherichia coli HB101; assay type: functional
Escherichia coli [28] = test: Antibacterial activity against Escherichia coli HB101 after 16 to 18 hrs by broth microdilution method; assay type: functional
[29] = tested on: Staphylococcus epidermidis; test: Antibacterial activity against Staphylococcus epidermidis clinical isolate after 16 to 18 hrs by broth microdilution method; assay type: functional
Escherichia coli [30] = test: Ratio of MIC for gyramide-resistant Escherichia coli JW5503 harboring GyrA His45Tyr mutant to MIC for Escherichia coli JW5503; assay type: functional
Escherichia coli [31] = test: Antibacterial activity against gyramide-resistant Escherichia coli JW5503 harboring GyrB Thr508Met mutant after 16 to 18 hrs by broth microdilution method; assay type: functional
Staphylococcus aureus = test: Antibacterial activity against Staphylococcus aureus subsp. aureus clinical isolate after 16 to 18 hrs by broth microdilution method; assay type: functional
Klebsiella aerogenes = test: Antibacterial activity against Enterobacter aerogenes clinical isolate after 16 to 18 hrs by broth microdilution method; assay type: functional
Escherichia coli [32] = test: Antibacterial activity against Escherichia coli JW5503 simultaneously overexpressing gyrA/gyrB in presence of IPTG induction after 16 hrs by broth microdilution method; assay type: functional, organism-based
Escherichia coli [33] = test: Antibacterial activity against Escherichia coli JW5503 overexpressing gyrB in presence of IPTG induction after 16 hrs by broth microdilution method; assay type: functional; conditions: JW5503, 16 h
Escherichia coli [34] = test: Antibacterial activity against Escherichia coli transfected with empty vector
Escherichia coli [35] = test: Antibacterial activity against Escherichia coli JW5503 overexpressing gyrA in absence of IPTG induction after 16 hrs by broth microdilution method; assay type: functional; conditions: JW5503, 16 h
Escherichia coli [36] = test: Antibacterial activity against Escherichia coli JW5503 overexpressing gyrA/gyrB in absence of IPTG induction after 16 hrs by broth microdilution method; assay type: functional; conditions: JW5503, 16 h
Escherichia coli [37] = test: Antibacterial activity against Escherichia coli JW5503 transfected with empty vector in absence of IPTG induction after 16 hrs by broth microdilution method; assay type: functional; conditions: JW5503, 16 h
Escherichia coli [38] = test: Antibacterial activity against Escherichia coli JW5503 overexpressing gyrB in absence of IPTG induction after 16 hrs by broth microdilution method; assay type: functional; conditions: JW5503, 16 h
Escherichia coli [39] = test: Antibacterial activity against ciprofloxacin-resistant Escherichia coli JW5503 harboring GyrA Ser83Leu mutant after 16 to 18 hrs by broth microdilution method; assay type: functional

With Cc1ccc(F)cc1S(=O)(=O)N[C@@H]1CCN(Cc2ccc(-c3ccccc3)cc2)C1 the Ratio [1] was > 1600.

For Cc1ccc(C#N)cc1S(=O)(=O)N[C@@H]1CCN(Cc2ccc(-c3ccccc3)cc2)C1, the MIC (Pseudomonas aeruginosa) was > 16 µg/mL, the MIC (Escherichia coli [2]) was 22 µg/mL (≈ 51 µM) and the MIC (Bacillus cereus) was > 16 µg/mL. The MIC (Enterococcus faecium) was > 16 µg/mL, the MIC (Enterococcus faecalis) was > 16 µg/mL and the MIC (Bacillus subtilis) was > 16 µg/mL. For the same molecule, the MIC (Escherichia coli [3]) was > 16 µg/mL, the MIC (Escherichia coli [4]) was 0.5 µg/mL (≈ 1.16 µM) and the Ratio (Escherichia coli [5]) was 10 - 100. For the same molecule, the MIC (Escherichia coli [6]) was 0.1 µg/mL (≈ 0.232 µM), the Ratio (Escherichia coli [7]) was 2 - 4 and the MIC (Escherichia coli [8]) was 0.2 µg/mL. For the same molecule, the MIC (Escherichia coli [9]) was 0.1 µg/mL (≈ 0.232 µM), the MIC (Streptococcus agalactiae) was > 16 µg/mL and the Ratio (Escherichia coli [10]) was 2 - 4. For the same molecule, the Ratio [1] was 80, the IC50 (DNA gyrase) was 47 nM and the MIC (Shigella flexneri) was 4 µg/mL (≈ 9.27 µM). The Ratio (Escherichia coli [11]) was 10 - 100, the MIC (Escherichia coli [12]) was 8 µg/mL (≈ 18.5 µM) and the MIC (Escherichia coli [13]) was 8 µg/mL (≈ 18.5 µM). The MIC (Escherichia coli [14]) was 22 µg/mL (≈ 51 µM), the MIC (Acinetobacter baumannii) was > 16 µg/mL and the MIC (Streptococcus pyogenes) was > 16 µg/mL. For the same molecule, the MIC (Escherichia coli [15]) was 5.4 µg/mL (≈ 12.5 µM), the MIC (Klebsiella pneumoniae) was > 16 µg/mL and the MIC (Salmonella typhimurium) was 2 µg/mL (≈ 4.63 µM). The Ratio (Escherichia coli [16]) was 2 - 4, the MIC (Morganella morganii) was > 16 µg/mL and the MIC (Escherichia coli [17]) was 0.2 µg/mL (≈ 0.463 µM). The Ratio (Escherichia coli [18]) was 10 - 100, the MIC (Escherichia coli [19]) was 2.7 µg/mL (≈ 6.26 µM) and the inhibition [20] was “inactive”. For the same molecule, the MIC (Edwardsiella tarda) was 8 µg/mL (≈ 18.5 µM), the Ratio (Escherichia coli [21]) was 2 - 4 and the Ratio (Escherichia coli [22]) was 10 - 100. For the same molecule, the Ratio (Escherichia coli [23]) was 2 - 4, the Ratio (Escherichia coli [24]) was 2 - 4 and the MIC (Escherichia coli [25]) was 0.4 µg/mL (≈ 0.927 µM). The MIC [26] was > 16 µg/mL, the Ratio (Escherichia coli [27]) was 2 - 4 and the MIC (Escherichia coli [28]) was 1 µg/mL (≈ 2.32 µM). For the same molecule, the MIC [29] was > 16 µg/mL, the Ratio (Escherichia coli [30]) was 10 - 100 and the MIC (Escherichia coli [31]) was 1.3 µg/mL (≈ 3.01 µM). For the same molecule, the MIC (Staphylococcus aureus) was > 16 µg/mL and the MIC (Klebsiella aerogenes) was > 16 µg/mL.

In the case of O=C(O)c1cn(C2CC2)c2cc(N3CCNCC3)c(F)cc2c1=O [CIPROFLOXACIN], the Activity (Escherichia coli [32]) is reported as “Active”, the MIC (Escherichia coli [33]) is reported as 0.0021 µg/mL and the inhibition [20] is reported as “inactive”. For the same molecule, the MIC (Escherichia coli [34]) was 0.009 µg/mL (≈ 0.0272 µM), the MIC (Escherichia coli [35]) was 0.0021 µg/mL (≈ 0.00634 µM) and the MIC (Escherichia coli [36]) was 0.0021 µg/mL (≈ 0.00634 µM). The MIC (Escherichia coli [37]) was 0.0021 µg/mL (≈ 0.00634 µM), the MIC (Escherichia coli [38]) was 0.0021 µg/mL (≈ 0.00634 µM) and the MIC (Escherichia coli [39]) was 0.0064 µg/mL (≈ 0.0193 µM).
